Measurements as given in patent publication US20260315564A1, “THE USE OF TP3 (THYMOPENTIN ANALOG) BY INCREASING THE ACTIVITY AND NUMBER OF T-CELLS INVOLVED IN THE DEFENSE MECHANISM OF THE IMMUNE SYSTEM OF MAMMALS, FOR THE PREVENTION OR TREATMENT OF DISEASES TO EXTEND THE AVERAGE LIFESPAN” (priority 2023, published 2026).
Marks after values point to notes of the source that are not given here. Residues, ends and D or L forms follow the SMILES beside them.

Key:
[1] = system: plaque-forming cells (PFC); assay: Number of plaque-forming cells (PFC) in Balb/c nu/nu mice; format: in vivo; settings: for number of plaque-forming cells (PFC): n = 8/group, control 55.7 (TP5), 53.0 (TP3)
Protocol: 1.3./Determination of the number of plaque-forming cells (PFC) (using rat spleen cells) The chopped splenocytes were placed in a culture medium (Parker 199) and then shaken with a shaker for 1 minute. The cells were suctioned from the surface of the rapidly settling tissue debris. Red blood cells were removed osmotically. Cell suspensions were adjusted to 107/ml. The cell suspensions were mixed with a 15% BVVT cell suspension in a ratio of 2:1. PFC was determined with the mixture using a modified chamber technique according to Channingham et al., 1966). Before filling the chamber, 50 μl of fresh diluted guinea pig serum (1:20) was added. The chambers (2-2/slide) were incubated (370C 45′) after sealing with paraffin, the formed plaques were counted under a microscope (at 400× magnification) within 2 hours Marker tests related to the rejection reaction of an adult thymus-depleted mouse skin graft 1.4./Rejection of skin transplants in nude mice after treatment with TP fragments (Snell et al., Transplantation 5, 492, 1967).
(§1) Mice were treated for 4 weeks 3 times a week (every other day) with TP fragments (10-9, 10-8, 10-7//10-3, 10-2, 10-1 M/animal ip. (Veys et al., 1983) at the end of the treatments ([…]), the mice were immunized (with 0.5 ml 1% BVVT suspension ip. The immune response was expressed in antibody titers as above).

[2] = system: Thy1+ cells in the spleens; assay: Number of Thy1+ cells in spleens of Balb/c nu/nu mice after TP-fragment treatment; format: in vivo; settings: ip, n = 8/group, control 5.4
Protocol: • D.1/Direct cytotoxicity test/for the detection of Thy, Lyt antigens (Fathman 1979, in Immunol Meth I. Eds. Lefkovits, Pernis, Acad Press, New York, pp. 212-213.) was used. Subpopulation ratios were determined from bone marrow cells, thymus, and spleen cells isolated from the lymphatic organs of mice. The cell suspensions (1.087-1.088 g/cm3) were centrifuged ona density gradient (2000 rpm, 20 minutes), and the cells were washed 3× with RPMI1640 medium containing 0.3% BSA, then adjusted to 107/ml. Thyl, Lyt 1, Lyt2 monoclonal antibodies (McAb/Ando I. (ICRF Human Tumor Immunol. UCM Med Sch. London) were obtained. 25 μl McAb and 25 ul cell suspension were incubated (60′, 40C1), after centrifugation (1250 rpm 10′), the cells were resuspended with 40 μul of diluted (1:50) rabbit complement, then incubated (370C, 60′). The cell suspensions were stained with 1:5 dilution of Eosin Y (Jansen). the ratio of live to non-living cells was determined.
as §1
Effects of inducing renewal of the immune system and increasing activity in Balb/c nude mice The nude mouse is genetically deficient in the thymus. The […] atrophies over time after hormonal follow-up in mice and humans. As a result, the strength of the lymphoid, and within that of the T cells, decreases. All this means a definitive decrease in antigen recognition capacity. The increasing number and activity of immune cells in the thymus of nude mice is increasing health and quality of life span.
The number of Thy1+ cells in the spleens of Balb/c nu/nu mice after TP-fragment treatment (Thy 1+ marker-bearing cells in mice correspond to human lymphocytes)

[3] = system: antibody production (IgM); assay: Antibody production (IgM) in aged mice; format: in vivo, aged mice (Balb/c); settings: second value column under head 'PFC IgM/logx^2'; aged mice 18 months old; n = 8/group; young control 84.1, aged 41.0
[4] = system: Active E-rosette forming cells (human lymphocytes); assay: Active E-rosette forming cells; format: cell-based; settings: control 6.3 (TP5), 5.2 (TP3)
Protocol: The test was carried out according to the method of (Wybran and Fundenberg 1973). 107/ml lymphocytes from either healthy blood donors or autoimmune patients were included in the tests. The effect of the substances was tested in the presence of 100 μl of […]. test compound. After an incubation period, 100 μul of cell suspension was placed on a glass slide, fixed for 3 minutes (with 50 μl of 3% glutaraldehyde solution), and stored in a humid chamber until evaluation.

[5] = system: healthy human lymphocytes; assay: E-rosette test, ex vivo on healthy human cells; format: cell-based; set-up: effect ex vivo on healthy human cells (rosette-forming cells): unit not given here; settings: for effect ex vivo on healthy human cells (rosette-forming cells): control 27.8 (TP5), 30.3 (TP3)
Protocol: Blood from donors was used for our experiments, where the blood samples were used either from animals or human donors. The heparinized blood samples were separated on a (FicolUromiro/Pharmacia-Bracco) gradient (Boyum 1968). 2×10^6 and 107 lymphocytes/ml cells were tested in E-rosette tests, the blood donors were the following animals: • Rat: Hannover Wistar (Richter) newborn rats were used to study the maturation of the immune response. As our mothers, 12 (maximum) randomized newborns were placed (21±10C, humidity: min. 65%) in a test litter. • Guinea pig: Donkin-Hartley (Lati) 250-300 g male animals were included for the DTH reaction test. • 2.3.3/Mice: Mouse strains of different genetic backgrounds were used: CFLP (outbred) from the Lati stock), Balb/c (inbred) and Balb/c nu/nu mice from the SzBC/Szeged stock.
In a preliminary study, the ED75 inhibitory effect of azathioprine was determined (Verhagen et al., 1980) and 500 μg/ml was used during the studies. An equal volume (200 μl) of activityinhibiting and isolated cell suspension and peptides ([…]) were measured. After 1 h (370C) incubation, the cell suspensions received 200 μl of 1% SRBC suspension and then centrifuged (90×g 5 minutes), 400 μl of the supernatant was aspirated.
The number of rosette-forming cells was counted. The activity was determined as percent recovery (R %). […]

DTH reaction (PPD) = assay: Delayed-type hypersensitivity (DTH) reaction in guinea pigs; format: in vivo; settings: n = 12/group, PPD 217.9

## CC(C)[C@H](NC(=O)[C@H](CC(=O)O)NC(=O)[C@H](CCCCN)NC(=O)[C@@H](N)CCCN=C(N)N)C(=O)N[C@@H](Cc1ccc(O)cc1)C(=O)O [TP5] (H-RKDVY-OH)
[1]; 10^-1 M/mouse (M/eger)
  number of plaque-forming cells (PFC): 76.5*
[1]; 10^-2 M/mouse (M/eger)
  number of plaque-forming cells (PFC): 73.0*
[1]; 10^-3 M/mouse (M/eger)
  number of plaque-forming cells (PFC): 67.4
[1]; 10^-3 M/mouse/i.p.
  increase in number of PFC cells: 35%
[1]; 10^-6 M/mouse (M/eger)
  number of plaque-forming cells (PFC): 72.5*
[1]; 10^-7 M/mouse (M/eger)
  number of plaque-forming cells (PFC): 71.0*
[1]; 10^-8 M/mouse (M/eger)
  number of plaque-forming cells (PFC): 9.5
[2]; 10^-1 M/mice
  number of Thy1+ cells in spleen: 131*
[2]; 10^-2 M/mice
  number of Thy1+ cells in spleen: 129**
[2]; 10^-3 M/mice
  number of Thy1+ cells in spleen: 94*
[2]; 10^-7 M/mice
  number of Thy1+ cells in spleen: 125**
[2]; 10^-8 M/mice
  number of Thy1+ cells in spleen: 79*
[2]; 10^-9 M/mice
  number of Thy1+ cells in spleen: 9.5
[3]
  IgM/logx^2: 44.7 logx^2
[4]; 10^-5 mol/l
  Active E-rosette forming cells: 8.6*
[4]; 10^-7 mol/l
  Active E-rosette forming cells: 7.5
[4]; 10^-9 mol/l
  Active E-rosette forming cells: 7.2
[4]; 10^-11 mol/l
  Active E-rosette forming cells: 10.7*
[4]; 10^-13 mol/l
  Active E-rosette forming cells: 7.9*
[5]; 10^-5 mol/l
  effect ex vivo on healthy human cells (rosette-forming cells): 26.9
[5]; 10^-6 mol/l
  effect ex vivo on healthy human cells (rosette-forming cells): 24.4
[5]; 10^-7 mol/l
  effect ex vivo on healthy human cells (rosette-forming cells): 29.4
[5]; 10^-8 mol/l
  effect ex vivo on healthy human cells (rosette-forming cells): 27.1
[5]; 10^-9 mol/l
  effect ex vivo on healthy human cells (rosette-forming cells): 26.1
[5]; 10^-11 mol/l
  effect ex vivo on healthy human cells (rosette-forming cells): 25.5
[5]; 10^-12 mol/l
  effect ex vivo on healthy human cells (rosette-forming cells): 28.4
[5]; 10^-13 mol/l
  effect ex vivo on healthy human cells (rosette-forming cells): 25.9
[5]; 10^-14 mol/l
  effect ex vivo on healthy human cells (rosette-forming cells): 26.1
[5]; in words
  activity on lymphocytes from healthy individuals: ineffective
DTH reaction (PPD); 0.1 mg/kg/s.c.
  DTH reaction, skin redness (bőrpir): 127.7* mm/π
DTH reaction (PPD); 1.0 mg/kg/s.c.
  DTH reaction, skin redness (bőrpir): 158.1 mm/π
DTH reaction (PPD); 20.0 mg/kg/s.c.
  DTH reaction, skin redness (bőrpir): 194.6 mm/π
